± gives the expanded uncertainty stated by the source.

The conditions of data set [1]: 298.15 K; 101.33 kPa; Liquid; Vibrating tube method.
Data set [2] can be described thus: refractive index (Na D-line) (dimensionless). As to conditions: 298.15 K; 101.33 kPa; Liquid; Abbe refractometer.

The mass density is mass per unit of volume. In general, refractive index refers to a measure of how strongly the sample bends light. Consider `CCCCCC` [hexane], for which the mass density in data set [1] amounted to 655.2 ± 0.25 kg/m3. Moreover, the refractive index in data set [2] worked out at 1.37241 ± 0.00033.
Taken in the same sequence, the figures for `CCCCCCC` [heptane] were 679.57 ± 0.25 kg/m3 and 1.38529 ± 0.00033.
In the same order, the values of `CCC[n+]1cccc(C)c1.O=S(=O)([N-]S(=O)(=O)C(F)(F)F)C(F)(F)F` are 1447.94 ± 0.62 kg/m3 and 1.44485 ± 0.00033.
In the same order, the values of `CCO` [ethanol] are 785.2 ± 0.24 kg/m3 and 1.35936 ± 0.00033.
For the compound `CC[n+]1cccc(C)c1.O=S(=O)([N-]S(=O)(=O)C(F)(F)F)C(F)(F)F`, the mass density in data set [1] was 1488.5 ± 0.66 kg/m3. The refractive index in data set [2] stood at 1.44376 ± 0.00033.
